Data taken from patent publication US20250134857A1, “Fast Acting Joint Health Composition and Use Thereof” (Lonza Greenwood LLC, priority 2022, published 2025).

Columns and labels:
Format in all cases: cell-based, Human
COX-2 = COX-2 expression by real-time PCR in IL-1β-treated SW1353 cells; settings: 1 h pretreatment, then IL-1β (5 ng/ml) 24 hr
Description: (§1) Human SW1353 chondrosarcoma cell line (ATCC, HTB-94) were grown in monolayer at 37° C., in a humidified atmosphere under 5% CO2, with Dulbecco's Modified Eagle Medium (DMEM) supplemented with 10% (v/v) fetal bovine serum (FBS) and 100 U/ml penicillin-streptomycin solution until 80% confluency with 0.1% v/v DMSO as a vehicle control.
(§2) The SW1353 cells were starved for 24 h with serum-free DMEM medium (containing 100 U/ml penicillin-streptomycin), and then pretreated with various concentrations of andrographolide and tamarind seed extract at three concentrations (in triplicate) for one hour, followed by addition of IL-1β (5 ng/ml) in culture media for an additional 24 hr. In addition, sulforaphane was tested as a positive control in the same manner as andrographolide and TSE, which is illustrated in FIG. 1E.
Real-time PCR was performed with the use of the SYBR Green PCR Master Mix (Applied Biosystems) according to the manufacturer's protocol and amplified on the ABI Prism 7000 sequence detection system.

MMP-13 = MMP-13 expression by real-time PCR in IL-1β-treated SW1353 cells; settings: for MMP-13 Percent Change over Control: 1 h pretreatment, then IL-1β (5 ng/ml) 24 hr
Description: as §1, §2
(§3) Real-time PCR was performed with the use of the SYBR Green PCR Master Mix (Applied Biosystems) according to the manufacturer's protocol and amplified on the ABI Prism 7000 sequence detection system. The results are illustrated in FIGS. 1A-1E, and in Table 1.

SOX-9 = SOX-9 expression by real-time PCR in IL-1β-treated SW1353 cells; settings: 1 h pretreatment, then IL-1β (5 ng/ml) 24 hr
Description: as §1, §2, §3

IL-1A = IL-1A expression by real-time PCR in IL-1β-treated SW1353 cells; settings: for IL-1A Percent Change over Control: 1 h pretreatment, then IL-1β (5 ng/ml) 24 hr
Description: as §1, §2, §3

IL-6 = IL-6 expression by real-time PCR in IL-1β-treated SW1353 cells; settings: for IL-6 Percent Change over Control: 1 h pretreatment, then IL-1β (5 ng/ml) 24 hr
Description: as §1, §2, §3

[1] = summary of Example 1, SW1353 cells, IL-1β

Q: With `C=C1CC[C@@H]2[C@](C)(CO)[C@H](O)CC[C@@]2(C)[C@@H]1C/C=C1/C(=O)OC[C@H]1O` [Andrographolide, andrographolide] as the compound, how does the “COX-2 Percent Change over Control” value (COX-2; Dose 2.78) read?
A: 27.1%

Q: What about the “COX-2 Percent Change over Control” value (COX-2; Dose 8.33) of the same compound?
A: −22.8%

Q: And the “COX-2 Percent Change over Control” value (COX-2; Dose 25)?
A: 59.8%

Q: What about the “MMP-13 Percent Change over Control” value (MMP-13; Dose 2.78) of the same compound?
A: 93.0%

Q: What about the “MMP-13 Percent Change over Control” value (MMP-13; Dose 8.33) of the same compound?
A: 87.2%

Q: What about the “MMP-13 Percent Change over Control” value (MMP-13; Dose 25) of the same compound?
A: 108.2%

Q: And the “MMP-13, result in words” value (MMP-13; [1])?
A: significant reduction

Q: And the “SOX-9 Percent Change over Control” value (SOX-9; Dose 2.78)?
A: 14.2%

Q: What about the “SOX-9 Percent Change over Control” value (SOX-9; Dose 8.33) of the same compound?
A: 10.8%

Q: And the “SOX-9 Percent Change over Control” value (SOX-9; Dose 25)?
A: 40.5%

Q: What about the “IL-1A Percent Change over Control” value (IL-1A; Dose 2.78) of the same compound?
A: 28.3%

Q: And the “IL-1A Percent Change over Control” value (IL-1A; Dose 8.33)?
A: 46.1%

Q: And the “IL-1A Percent Change over Control” value (IL-1A; Dose 25)?
A: 73.1%

Q: What about the “IL-1, result in words” value (IL-1A; [1]) of the same compound?
A: significant reduction

Q: What about the “IL-6 Percent Change over Control” value (IL-6; Dose 2.78) of the same compound?
A: 46.7%

Q: What about the “IL-6 Percent Change over Control” value (IL-6; Dose 8.33) of the same compound?
A: 62.8%

Q: What about the “IL-6 Percent Change over Control” value (IL-6; Dose 25) of the same compound?
A: 101.3%

Q: What about the “IL-6, result in words” value (IL-6; [1]) of the same compound?
A: significant reduction
